Assay results taken from publication PMC5263201, “GABAA receptor occupancy by subtype selective GABAAα2,3 modulators: PET studies in humans” (Psychopharmacology, 2016).
Where “and” joins values, the source holds several entries; their conditions need not be identical. Equal entries are not always repeated. Where two headings read alike, the source gives them in different places.

Key:
[1] = target: human MT1 receptor (Homo sapiens, UniProt P48039); assay: MT1 receptor GTPγS studies; type: biochemical
[2] = Plasma pharmacokinetics after single oral doses in the PET studies; type: in vivo, human; conditions: for C av,PET: average plasma concentration at time of PET
Description: Venous blood samples for determination of drug plasma concentrations were collected at approximately 15 min before [^11C]flumazenil injection and at 15 and 30 min and 3, 4, 6, 8, 10, 12, 16, 24, 36, and 48 h after drug administration, including three samples during PET measurement, at 1, 1.30, and 2 h after drug administration.
Calculations of the pharmacokinetic parameters included the maximum plasma concentration (C max), the time to the maximum plasma concentration (T max), and the average drug plasma concentration during the PET measurement (C av,PET) (division of the partial area corresponding to the start and end times of PET assessment, AUCPET, by the duration of the PET measurement). The pharmacokinetic calculations were performed using non-compartmental analysis using WinNonlin™, Pharsight Corporation.

[3] = cited from earlier work
[4] = system: GABAA receptors (benzodiazepine binding site); assay: PET with [11C]flumazenil (HRRT): GABAA receptor occupancy; type: in vivo, human; conditions: for Occupancy (%) OC: occipital cortex; for Occupancy (%) OC / Occupancy (%) AMG / Occupancy (%) CER / Occupancy (%) PUT: 1 h after drug administration; for Occupancy (%) AMG: amygdala; for Occupancy (%) CER: cerebellum; for Occupancy (%) PUT: putamen
Description: Two separate open-label phase I PET studies were conducted in 2008–2009.
The initial study design included two sequential panels, with two subjects in each. The first panel was intended to obtain initial receptor occupancy values, to be used for dose selection in the second panel. […] The studies followed an adaptive design, i.e., doses and PET measurements were adjusted depending on the results of preceding measurements. […] To optimize quantification of the relationship between AZ6280 exposure and receptor occupancy, the number of subjects with the highest 40 mg dose was increased (Fig. 1).
The head of the subject was fixed using individual plaster helmet. A sterile physiological phosphate buffer (pH 7.4) solution containing [^11C]flumazenil was injected intravenously as a bolus during 2 s, immediately followed by flush with 10 ml saline. The injected radioactivity for [^11C]flumazenil was in the range of 330–350 MBq, (340 (9) MBq, mean, SD) in the study 1 and in the range of 317–363 MBq (335 (16) MBq) in the study 2. The specific radioactivity of the radioligand at time of injection ranged from 310 to 1465 GBq/μmol (730 (414) GBq/μmol, mean, SD) and from 464 to 1879 GBq/μmol (977 (424) GBq/μmol, mean, SD), for study 1 and study 2, respectively.
PET examinations were performed over 63 min (HRRT; Siemens/CTI). List mode data were reconstructed using the ordinary Poisson 3D ordered subset estimation maximization algorithm, with 10 iterations and 16 subsets including modeling of the point spread function (Varrone et al. [2009]) into a 4D PET image containing 33 consecutive time frames (9 × 10 s, 2 × 15 s, 3 × 20 s, 4 × 30 s, 4 × 60 s, 4 × 180 s, 7 × 360 s) with a 3D array of 256 × 256 × 207 voxels having a size of 1.22 × 1.22 × 1.22 mm.
The anatomical brain regions were delineated manually on the MR images using in-house image analysis software. The regions included cortical and striatal subregions, thalamus, cerebellum, limbic regions, pons, and whole brain. The following four regions were selected in the final analysis: The occipital cortex and cerebellum were chosen because of the highest GABAA receptor binding by [^11C]flumazenil and good imaging statistics and preferential distribution of α1/α2 receptor subtypes; the amygdala was chosen because of its role in the brain circuits involved in anxiety and putamen for preferential α1/α2/α3 versus α5 receptor subtypes (Lingford-Hughes et al. [2002]; Fatemi et al. [2013]; Waldvogel and Faull [2015]). For the pons, the ROI was drawn on horizontal projection on the six central slices. […] The concentration of radioactivity in each ROI, calculated for each sequential time frame and corrected for ^11C decay, was plotted versus time (TACs).
An index of neuronal GABAA receptor density or binding potential (BPND) was calculated using the simplified reference tissue model (Lammertsma and Hume [1996]) and pons as a reference region. The calculated receptor occupancy (%) was then correlated to drug exposure according to the following equation:1 Occupancy=Occmax×Cav,PET/Ki,plasma+Cav,PET
where Occmax is the maximal occupancy induced by drug, C av,PET is the total drug plasma concentration, and K i,plasma is the inhibition constant corresponding to the drug plasma concentration required for half-maximum receptor occupancy. Non-linear least squares curve fitting of the relationship between drug plasma concentration and receptor occupancy was performed using Matlab R2007b (http://de.mathworks.com). Regional data were fitted simultaneously to obtain a single estimate of K i,plasma and regionally different estimates of Occmax. Best fit estimate and confidence interval (95% CI) were obtained on the logarithmic scale.

[5] = system: approximately 160 different ligand binding assays; assay: Battery of approximately 160 different ligand binding assays at 10 μM; conditions: active = ≥50% inhibition with an IC50 <1µM
[6] = Brain exposure in animals; type: in vivo
[7] = design: method as in Chen et al. 2014, 2015; conditions: neurophysiological test battery; ref Chen et al. 2014, 2015; cited from earlier work
[8] = Safety and tolerability in the PET studies; type: in vivo, human
Source text: Safety and tolerability assessments included records of adverse events, vital signs (blood pressure, heart rate), Allen’s test, ECG, clinical chemistry, hematology assessments, and urinalysis.

[9] = AZD6280 5 to 40 mg single oral doses

Sequence of human MT1 receptor (P48039 whole entry): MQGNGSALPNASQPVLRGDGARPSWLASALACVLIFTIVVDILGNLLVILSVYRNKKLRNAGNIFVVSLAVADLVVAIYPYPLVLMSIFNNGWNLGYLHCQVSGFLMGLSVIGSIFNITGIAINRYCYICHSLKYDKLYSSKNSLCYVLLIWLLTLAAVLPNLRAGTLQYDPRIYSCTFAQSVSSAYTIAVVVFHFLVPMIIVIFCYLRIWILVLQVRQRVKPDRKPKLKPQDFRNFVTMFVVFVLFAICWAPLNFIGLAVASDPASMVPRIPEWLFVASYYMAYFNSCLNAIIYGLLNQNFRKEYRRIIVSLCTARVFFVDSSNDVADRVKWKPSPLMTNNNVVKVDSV

Work on `CCCNC(=O)c1nnc2c(-c3cc(OC)ccc3OC)cccc2c1N` [AZD6280] yielded an EC50 [1] of 19 nM, an Emax [1] of 90% and a T max ([2]; AZD6280 single oral dose 5 mg, individual subjects) of 108 min. The Cmax ([2]; AZD6280 single oral dose 5 mg, individual subjects, read-out: C max) was 179 nM and 77.2 nM, the “C av,PET” value ([2]; AZD6280 single oral dose 12 mg) was 204.68 nM and the “C av,PET” value ([2]; AZD6280 single oral dose 20 mg) was 592.22 nM. For the same molecule, the “C av,PET” value ([2]; AZD6280 single oral dose 30 mg) was 513.07 nM and 676.82 nM, the T max ([2]; AZD6280 single oral dose 30 mg, individual subjects) was 30 min and the Cmax ([2]; AZD6280 single oral dose 30 mg, individual subjects, read-out: C max) was 731 nM. For the same molecule, the T max ([2]; AZD6280 single oral dose 40 mg, individual subjects) was 30 min and 36 min, the Cmax ([2]; AZD6280 single oral dose 40 mg, individual subjects, read-out: C max) was 1250 nM and 1500 nM and 439 nM and 1510 nM and the Cmax ([2]; human, plasma, oral, range over all doses and subjects, read-out: range for peak exposures, Cmax) was 28.3 to 555 ng/mL. For the same molecule, the Tmax ([2]; human, plasma, po, 5 mg, AZD6280 single oral dose 5 mg, individual subjects) was 60 min, the Tmax ([2]; human, plasma, po, 12 mg, AZD6280 single oral dose 12 mg, individual subject) was 54 min and the Cmax ([2]; human, plasma, po, 12 mg, AZD6280 single oral dose 12 mg, individual subject, read-out: C max) was 249 nM. For the same molecule, the Tmax ([2]; human, plasma, po, 20 mg, AZD6280 single oral dose 20 mg, individual subject) was 96 min, the Cmax ([2]; human, plasma, po, 20 mg, AZD6280 single oral dose 20 mg, individual subject, read-out: C max) was 677 nM and the Cmax ([2]; human, plasma, po, 30 mg, AZD6280 single oral dose 30 mg, individual subjects, read-out: C max) was 729 nM. For the same molecule, the “sedation scores in VAS alertness scale compared to placebo” value ([3]; 1 h post-dose, dose ≥20 mg, ref AZ data on file) was “numerically higher sedation scores”, the “correct answers on DSST” value ([3]; 2 h after administration, dose ≥20 mg, ref AZ data on file) was “lower mean correct answers” and the “relationship between dose and alertness or cognitive performance” value ([3]; VAS alertness-sedation, Modified Wilson Sedation Scale, DSST, ref NCT00681317 and NCT00681915) was “no significant relationship”. For the same molecule, the “receptor occupancy at the maximum tolerated dose” value ([4]; 40 mg AZD6280, cortex and cerebellum) was “over 60%”, the “Occupancy (%) OC” value ([4]; AZD6280 single oral dose 5 mg) was 11% and 7% and the “Occupancy (%) AMG” value ([4]; AZD6280 single oral dose 12 mg) was −8%. For the same molecule, the “Occupancy (%) CER” value ([4]; AZD6280 single oral dose 12 mg) was 25%, the “Occupancy (%) OC” value ([4]; AZD6280 single oral dose 12 mg) was 17% and the “Occupancy (%) PUT” value ([4]; AZD6280 single oral dose 12 mg) was 0%. The “Occupancy (%) AMG” value ([4]; AZD6280 single oral dose 20 mg) was 20%, the “Occupancy (%) CER” value ([4]; AZD6280 single oral dose 20 mg) was 65% and the “Occupancy (%) OC” value ([4]; AZD6280 single oral dose 20 mg) was 60%. For the same molecule, the “Occupancy (%) PUT” value ([4]; AZD6280 single oral dose 20 mg) was 32%, the “Occupancy (%) AMG” value ([4]; AZD6280 single oral dose 30 mg) was 9% and 5% and the “Occupancy (%) CER” value ([4]; AZD6280 single oral dose 30 mg) was 50% and 59%. For the same molecule, the “Occupancy (%) OC” value ([4]; AZD6280 single oral dose 30 mg) was 39% and 43%, the “Occupancy (%) PUT” value ([4]; AZD6280 single oral dose 30 mg) was 16% and 14% and the “Occupancy (%) CER” value ([4]; AZD6280 single oral dose 40 mg) was 69% and 61% and 62% and 60%. The “Occupancy (%) OC” value ([4]; AZD6280 single oral dose 40 mg) was 50% and 52% and 62% and 53% and 36%, the “Receptor occupancy (RO)” value ([4]; at 40mg, MTD, present study) was 60-70% and the Ki ([4]; read-out: K i,plasma (plasma concentration required for 50% receptor occupancy), hyperbolic fit of occupancy vs C av,PET, regional data fitted simultaneously) was 440 nM. For the same molecule, the “activity in the battery of ligand binding assays” value [5] was “only assays in which either compound was active were the melatonin Type 1 and Type 2 receptors”, the brain exposure [6] was “good brain exposure” and the “receptor occupancy up to which no cognitive or hypnotic side effects were observed” value [7] was “up to 60%”. The “most common AEs: dizziness” value [8, 9] was “four of eight subjects”, the “most common AEs: feeling drunk” value [8, 9] was “two out of eight subjects” and the “receptor occupancy at the doses/exposure at which adverse events were reported” value ([8]; AZD7325 5, 20 and 30 mg, AZD6280 20 mg and above) was greater than 60%. For the same molecule, the “high receptor occupancy reached without obvious sedative effects” value ([8]; PET studies) was greater than 60% and the “doses at which AEs were reported” value ([8]; not at 5 and 12 mg dose) was no less than 20 mg.
